According to patent publication US12109231B2 (Neuvivo, Inc., priority 2015, dated 2024):
Read-outs that look alike come from different tables or passages of the source.

How the values were obtained:
markers of inflammation = details: ALS patients, after a single dose
[1] = test system: G93A SOD-1 mt. mouse model of ALS; details: SOD-1 mutant mice, 2 mg/kg intravenously every three weeks
Procedure: Chlorite composition administration and survival studies have been done in G93A SOD-1 mt. mouse model of ALS. In this model, the SOD-1 mutant mice begin developing degeneration of neurologic function starting at approximately 70 days of age. The mice were dosed with chlorite composition at 2 mg/kg intravenously every three weeks with neuroscore and survival information being collected weekly.

[2] = test system: patient with schizophrenia
Text: (§1) Plasma/serum samples are obtained and submitted to a lab-based immunoassay to quantify inflammatory markers in the plasma/serum sample. Inflammatory markers are compared to the patient's pre-treatment levels of plasma/serum inflammatory markers.

[3] = test system: patient with posttraumatic stress disorder
Text: as §1

[4] = test system: patient with bipolar disorder
Text: as §1

patient with depression = test system: patient with depression
Text: as §1

patient with autism = test system: patient with autism
Text: as §1

[5] = test system: monocyte/macrophage activation; details: in vivo
[6] = test system: monocyte/macrophage activation; details: in vitro
IL-18 = details: Phase 2, responders with elevated IL-18 at baseline
Text: (§2) These clinical data provided compelling rationale to test […] in pre-clinical models of Parkinson's disease to investigate its brain penetrance, ability to modulate microglia activation and peripheral immune cell infiltration to the CNS, and protect vulnerable neuronal populations from synuclein-induced degeneration.

ALS patients = test system: ALS patients
Text: as §2

LPS = details: Phase 2, responders positive for LPS at baseline
Text: as §2

## sodium chlorite
Markers of inflammation
  markers of inflammation: decrease markers of inflammation
[1]
  survival compared with sham treated animals: almost three weeks longer
[1]; vs sham
  neurologic degeneration (neuroscore): delayed by a similar time
[2]; after weekly injection
  behavioral and/or neurophysical symptoms of schizophrenia: found to be reduced
[2]; schizophrenia, vs pre-treatment levels
  levels of plasma/serum inflammatory markers after treatment: reduced
[3]; after weekly injection
  behavioral and/or neurophysical symptoms of posttraumatic stress disorder: found to be reduced
[3]; posttraumatic stress disorder, vs pre-treatment levels
  levels of plasma/serum inflammatory markers after treatment: reduced
[4]; after weekly injection
  behavioral and/or neurophysical symptoms of bipolar disorder: found to be reduced
[4]; bipolar disorder, vs pre-treatment levels
  levels of plasma/serum inflammatory markers after treatment: reduced
Patient with depression; after weekly injection
  behavioral and/or neurophysical symptoms of depression: found to be reduced
Patient with depression; depression, vs pre-treatment levels
  levels of plasma/serum inflammatory markers after treatment: reduced
Patient with autism; after weekly injection
  behavioral and/or neurophysical symptoms of autism: found to be reduced
Patient with autism; autism, vs pre-treatment levels
  levels of plasma/serum inflammatory markers after treatment: reduced
[5]
  markers of monocyte/macrophage activation: reversed
[6]
  markers of monocyte/macrophage activation: reversed
IL-18
  IL-18 in responders following treatment: decreased following treatment
ALS patients; Phase 2
  symptom progression in a subset of patients: may have dose-dependently halted symptom progression
ALS patients; Phase 2, 2 mg/kg, patients above the median wr-CRP, six months of study
  slower rate of progression than placebo patients: 44%
ALS patients; Phase 2, baseline wr-CRP above 1125 ng/ml
  dose dependence of disease progression in patients with above the median wr-CRP value: dose dependent slowing of disease progression
ALS patients; Phase 2, high dose (2 mg/kg), six months of treatment
  patients who did not progress / stopped progressing: 25%
ALS patients; Phase 2, high dose, six months of treatment
  number of non-progressing patients relative to placebo: More than 2 times
ALS patients; Phase 2, high-dose group
  progression in patients with greater inflammation (higher CRP): slowing of progression was observed
LPS
  LPS in responders following treatment: decreased following treatment
Monocyte CD16; 24 hours after one dose, compared with baseline pretreatment levels
  reduction of the difference between ALS and normal control level of monocyte CD16 expression toward the normal value: approximately 50%
Monocyte CD16; chlorite treated patients compared to placebo
  level of CD16 expression on the CD16 bright subset of monocytes: Dose-dependent changes
